For one data set, the system named is SpoTAb^NTD. Nature of the data set: Isothermal titration calorimetry (ITC) of ligand binding to SpoTAb^NTD. More on the design: species or system Acinetobacter baumannii. The source says: This is also the case with the specialisation of SpoTAb as a monofunctional hydrolase where the pseudo-SYNTH domain has evolved into a strictly regulatory/structural domain. […] These involve the residues that coordinate adenosine and guanosine (R249 to N241, R277 to E267 and Y329 to N304) and the majority of phosphate-coordinating groups. Crucially, the catalytic residues D272 and Q347 are substituted for S263 and T321, respectively. […]; Roghanian et al., Mol Cell, 2021).
To directly validate the lack of pppGpp-mediated regulation in SpoTAb, we characterised the interaction between pppGpp and SpoTAb^NTD by ITC. […] Following the experimental approach used earlier for SpoTEc (Roghanian et al., Mol Cell, 2021), we next grafted the allosteric site of A. baumannii RelA (^236RelA^246) onto SpoTAb^NTD (replacing ^201SpoTAb^211).
The essential role of the divalent manganese ion Mn^2+ in (p)ppGpp pyrophosphate hydrolysis is well documented for both Rel (Hogg et al., Cell, 2004; Takada et al., Nucleic Acids Res, 2021; Avarbock et al., Biochemistry, 2000; Van Nerom et al., Acta Crystallogr F Struct Biol Commun, 2019) and SpoTEc (Heinemeyer et al., Eur J Biochem, 1978).

For another data set, the system named is SpoTAb. Nature of the data set: HD (ppGpp hydrolysis) activity of SpoTAb in presence of added factors. It counts as biochemical, Acinetobacter baumannii. The note with it: metal-free full-length SpoTAb (completely HD inactive). The source says:
FIG. 1. Full-length monomeric A. baumannii SpoT adopts a compact “mushroom”-shaped HD-active τ-state. (a) Structure of “mushroom”-shaped SpoTAb-ppGpp complex in the τ-state. The domain organization, from N to C terminus: NTD domains hydrolase (HD), pseudo-synthetase (pseudo-SYNTH) and Core, and CTD domains, TGS, Helical (HEL), Zn-finger (ZFD) and RNA recognition motif (RRM). The ppGpp alarmone is labelled. (b) Cartoon representation the SpoTAb. The “stem” of the mushroom is formed by the enzymatic HD domain and the “cap” by the regulatory domains: NTD pseudo-SYNTH domain and the CTD domains. (c) Ribbon representation of the SpoTAb-ppGpp complex. The α6/α7 motif is held in the hydrolysis-compatible position by the folded Core domain and the TGS β-hairpin, with the Core domain communicating allosteric signals to HD from the regulatory domains. […] (e) Analytical size exclusion chromatography (SEC) of SpoTAb supports its monomeric nature in solution. (f) Experimental X-ray scattering (SAXS) analysis of SpoTAb at 8 mg/mL further confirms the monomeric nature of SpoTAb. […] (g) Ab initio envelope of SpoTAb reconstructed from the experimental SAXS data superimposed on the crystal structure.
While the SYNTH and TGS domains are sequestered in the “cap”, the HD hydrolase stands out unconfined and primed for (p)ppGpp hydrolysis. […]

Data set [1] concerns the molecule itself. Briefly: SEC-SAXS and analytical size exclusion chromatography in solution (oligomeric state, self-association). In general terms: Size exclusion chromatography separates by hydrodynamic size, large species first.

On to `Nc1nc2c(ncn2[C@@H]2O[C@H](COP(=O)(O)OP(=O)(O)O)[C@@H](O)[C@H]2O)c(=O)[nH]1` [GDP], for which the “GDP binding by SpoTAb” value with SpoTAb^NTD is reported as “does not bind”.
For the molecule `[Mn+2]` [Mn^2+], in the data set on SpoTAb, the “HD activity upon addition to metal-free enzyme” value is “readily restored”.
`Nc1nc2c(ncn2C2OC(COP(=O)(O)OP(=O)(O)OP(=O)(O)O)C(OP(=O)(O)OP(=O)(O)O)C2O)c(=O)[nH]1` (stereo not shown) [pppGpp, guanosine pentaphosphate]: in the data set on SpoTAb^NTD, the “allosteric binding of pppGpp” value is reported as “does not bind”.

B1: Acinetobacter baumannii SpoT enzyme (enzyme)
chain: MPGEEVSQAKQQLKLIIDPYLSVSEVEKVLAACDFGDLAHTGITRKSGEPYILHPIAVSCILANMRLDPETLMAALLHDVIEDTQYTKDDIIERFGQTVAELVDGVTKLSQSSDKEYNKAASFRKILQATLQDPRVIIIKLADRYHNMTTLGALRPDKRARIAQETFDIFVPMARLVGMNEMADNLENLCYQNLDLDMFDNVQNALLQTKPERCKYQSIWEQNLAELLHNYHIQGRIKKKNNNIELLRHFVKNEMDLQELTHSHAFEIVLQSIADCDRLVAALKENFQVIQYQDHIRRPLPGGNQSLMIKLKGEKTTLSLTIQTELMRKAARFGVVLGENAPQTCRSAIQASMQNLNTLIDGECAKTTFNDLLDYLHQEKIWVYTPHGQLHELPQGATVVDFAYSASLFLGNHAVGAKVDGEIKPLSTPLVSGQVIEIITDVLATPNPDWLSFINTQKARRALQHVLKDQDIEEQRLVGAQALSRALKLFNRSINDLSDADWLDLLQWRHIDNKDALFEQIAVGDLLPQLVANHLFANDKHPRAENSDRLIQGTEGIDVKYAHCCNPILGDPIQGHLTRRGLIVHRIRCHNLLHEQHLHPENIMPLQWKADDVDDVRFTAYLAIYMAMNDEQVSDLIYQCRKNNAGVEMVHSNEQRTFVNIVVNNRKHIAKVIRDLRMHYGFPRIERLDAPAPQMEISKVS
notes: Full-length wild-type SpoTAb; also called SpoTAb; A. baumannii SpoT
B1: the binding result in data set [1] was “no binding (tested: 8 mg/mL)”.

These data come from patent publication US20260128119A1, “SCREENING METHODS FOR ACINETOBACTER BAUMANNII SPOT ENZYME MODULATORS” (priority 2022, published 2026).
